Laboratory results taken from patent publication US11842798B2, “Natural product and genetic data analysis and discovery system, method and computational platform therefor” (priority 2015, dated 2023).
Entries after “also recorded” stand apart in the source; their conditions may differ. Where two headings read alike, the source gives them in different places. Numbered stars: 1 amine (or outer) side, 2 acyl side, 3 side chain; on linkers, the order of the positions; unused ones are H or OH. Bridge positions count the residues as written; N and C are the ends. Square brackets hold non-standard residues; d marks the D form. Peptide text beside a SMILES is read from it. X1 = O=C(/C(=C\c1c[nH]c2ccccc12)N[*:1])[*:2]; X2 = CC(c1c[nH]c2ccccc12)C(N[*:1])C(=O)[*:2]; βAsp = O=C(O)[CH](CC(=O)[*:2])N[*:1]

Tests used:
[1] = tested on: Telomycin-resistant bacteria; experiment: MIC by broth microdilution, telomycin-resistant strains; format: cell-based, S. aureus and B. subtilis; conditions: for activity against resistant strains: compared with telomycin A against sensitive strains
Protocol: (§1) FIG. 46 summarizes MICs of telomycin antibiotics (1-10). Sensitive and resistant strains were exposed to telomycins and MICs were measured by microdilution in CAMHB. MICs were determined after 16 h growth, and are shown in μg ml−1.
(§2) Minimum inhibitory concentrations (MICs) for telomycins were determined using broth microdilution in cation-adjusted Mueller Hinton broth (CAMHB). Bacillus subtilis strains were cultured at 28° C., and S. aureus strains were cultured at 37° C. […] For assessing the impact of treating strains with sodium chloride concentrations prior to telomycin, S. aureus was grown overnight in CAMHB containing 0, 0.5, 1, or 1.5 M NaCl and then MICs were recorded as described above.
To identify mutations that conferred resistance to telomycin, we isolated colonies of S. aureus Newman that appeared inside the zone of inhibition observed during telomycin disk diffusion assays. […] Genomic DNA was extracted from highly resistant isolates and their sensitive parental strain, and sequenced with an Illumina MiSeq platform. Sequences were compared using BreSeq, which exclusively identified mutations in the predominant, house-keeping cardiolipin synthase (cls2). Bacillus subtilis telomycin-resistant mutants were identified in a similar manner, and mutations in cardiolipin synthase were confirmed by sequencing PCR products of the two cardiolipin synthase genes: clsA and clsB. […] PCR primers used for the amplification of B. subtilis cardiolipin synthase genes are as follows— • clsAF: 5′-[…]-3′ (SEQ ID NO: 1); • clsAR: 5′-[…]-3′ (SEQ ID NO: 2); • clsBF: 5′-[…]-3′ (SEQ ID NO: 3); • clsBR: 5′-[…]-3′ (SEQ ID NO: 4). Structure Elucidation

[2] = tested on: Sensitive and resistant strains; experiment: MICs of telomycin antibiotics (FIG. 46); format: cell-based
Protocol: as §1, §2

[3] = tested on: S. aureus; experiment: MIC by broth microdilution in CAMHB; format: cell-based
Protocol: as §2
(§3) (a) Structure of telomycin. […] Wild type S. aureus (OD 0.2) was exposed to 8 (1×MIC) or 256 μg ml^−1 (32×MIC) telomycin. Colony-forming units (CFUs) were taken before treatment (black) and after 90 min (white). Results are shown as ±s.d.; n=4; Two-tailed students t-test. P=0.0023. Data are representative of three independent experiments.

[4] = tested on: S. aureus; experiment: Colony forming unit (CFU) lysis assay; format: cell-based
Protocol: (§4) Cultures of S. aureus and B. subtilis were grown overnight in CAMHB. Starter cultures were used to inoculate fresh media and were grown to OD=0.2, after which they were transferred to 96-well plates. Cultures were serially diluted and plated on CAMHB agar to determine initial colony-forming units. Telomycin dissolved in DMSO was added to each well (1:100) and incubated for 90 min, followed by serial dilution and plating to determine colony-forming units. Results are shown as ±s.d.; n=4; Two-tailed students t-test.
as §3
(a) Mutating cardiolipin synthase provides spontaneous telomycin resistance. Wild type and spontaneously-resistant S. aureus (left) and B. subtilis (right) were exposed to 32×MIC concentrations of telomycin for 90 min. CFUs were taken before treatment (black) and after 90 min (white). Results are shown as ±s.d.; n=4; Two-tailed students t-test. P=0.0018. Data are representative of three independent experiments. […] Mixtures were incubated for 5 min before turbidity was measured using absorbance at 600 nm. […]

[5] = tested on: B. subtilis; experiment: Colony forming unit (CFU) lysis assay; format: cell-based; conditions: concentrations above the MIC
Protocol: as §4
(§5) (a) Mutating cardiolipin synthase provides spontaneous telomycin resistance. Wild type and spontaneously-resistant S. aureus (left) and B. subtilis (right) were exposed to 32×MIC concentrations of telomycin for 90 min. CFUs were taken before treatment (black) and after 90 min (white). Results are shown as ±s.d.; n=4; Two-tailed students t-test. P=0.0018. Data are representative of three independent experiments. […] Telomycin (final concentration 5 mM; 6.3 mg ml^−1) was mixed with CL, PG, PE, or PC at concentrations ranging from 0.125 to 5 mg ml^−1. Mixtures were incubated for 5 min before turbidity was measured using absorbance at 600 nm. […] Telomycin (0.1 mM) was exposed to lipids at concentrations ranging from 1 to 0.05 mM, then used to determine MICs against wild type B. subtilis. […] (d) Cardiolipin abolishes telomycin's antibacterial activity. […]

[6] = tested on: Telomycin-resistant bacteria; experiment: CFU lysis assay on spontaneously-resistant strains; format: cell-based, S. aureus and B. subtilis; conditions: 32×MIC, 90 min
Protocol: as §4, §5

[7] = tested on: HEK293 cells; experiment: Cytotoxicity assay (Alamar Blue); format: cell-based, human; conditions: HEK293, 48 h
Protocol: HEK293 cells were obtained from the American Type Culture Collection (ATCC; ATCC CRL-1573) and maintained in Minimal Essential Media (MEM) Alpha modifications supplemented with 10% fetal bovine serum. […] Cells were cultured in 96-well plates containing 200 μL of media and 5000 cells per well. After 3 h of incubation, cells were treated with a serial dilution of telomycin A. Experiments were performed in duplicate with DMSO as a negative control and mitomycin C as a positive control. After 48 h incubation, 10% (22 μL) Alamar Blue (Life Technologies) was added and incubated with cells for 4 h at 37° C. Fluorescence was measured at an excitation wavelength of 530 nm and an emission wavelength of 590 nm and compared to a no-drug control.

[8] = tested on: sheep red blood cell; experiment: Red blood cell (RBC) hemolysis assay; format: cell-based; conditions: 0.25% sheep RBC, 256 to 2 μg/mL, 1 h, 37° C.
Protocol: Hemolytic activity of telomycin was measured against a 0.25% sheep red blood cell (RBC, Fisher Scientific) suspension in phosphate-buffered saline. Telomycin was serially diluted from 256 to 2 μg/mL and incubated with the RBC suspension for 1 h at 37° C. in a polypropylene 96-well plate with conical wells. After 1 h, RBCs were pelleted (1000×g for 5 min) and the supernatant was transferred to a flat-bottom polystyrene 96-well plate, measuring absorbance at 540 nm. 1% Triton X-100 was used as a positive control, while DMSO alone and RBCs alone were used as negative controls.
A solution of 0.25% sheep red blood cell suspension in phosphate buffered saline was incubated for 1 h at 37° C. with either a serial dilution of telomycin, 1% Triton X100 (positive lysis control), DMSO alone (1%; negative lysis control), or without added content (negative lysis control). After 1 h RBCs were pelleted and lysis was assessed by measuring absorbance of the supernatant at 540 nm.

[9] = Turbidity of telomycin-lipid mixtures; format: binding; conditions: telomycin mixed with cardiolipin, absorbance at 600 nm, other lipids as contrast
Protocol: To measure the turbidity of telomycin-lipid mixtures, telomycin was dissolved in methanol at a concentration of 12.8 mg/mL, and cardiolipin (Sigma Aldrich; C0563; 98% pure), phosphatidylglycerol (Sigma Aldrich; 63371; ≥98% pure), phosphatidylcholine (Sigma Aldrich; P3556; ≥99% pure), and phosphatidylethanolamine (Sigma Aldrich; P7943; 97% pure) were dissolved in methanol at a concentration of 10 mg/mL. 20 μL of telomycin was mixed with 20, 10, 5, 1, or 0.5 μL of each lipid (final reaction volume 40 μL) in a flat-bottom polystyrene 96-well plate. Optical density (OD=600 nm) was measured after 10 min.
(§6) (a) Mutating cardiolipin synthase provides spontaneous telomycin resistance. Wild type and spontaneously-resistant S. aureus (left) and B. subtilis (right) were exposed to 32×MIC concentrations of telomycin for 90 min. CFUs were taken before treatment (black) and after 90 min (white). Results are shown as ±s.d.; n=4; Two-tailed students t-test. P=0.0018. Data are representative of three independent experiments. […] Telomycin (final concentration 5 mM; 6.3 mg ml^−1) was mixed with CL, PG, PE, or PC at concentrations ranging from 0.125 to 5 mg ml^−1. Mixtures were incubated for 5 min before turbidity was measured using absorbance at 600 nm. […] Telomycin (0.1 mM) was exposed to lipids at concentrations ranging from 1 to 0.05 mM, then used to determine MICs against wild type B. subtilis. […]

[10] = tested on: B. subtilis; experiment: Bioactivity of telomycin-lipid mixtures in liquid media (MIC); format: cell-based
Protocol: To assess the impact of various lipids on telomycin's antibacterial activity in liquid media, telomycin was dissolved in methanol at 12.8 mg/mL (approx. 10 mM) and 1 μL was added to a 96-well plate. Lipids were dissolved in methanol and 10 μL of 10, 5, 2, 1, or 0.5 mM lipid was added to each telomycin-containing well. CAMHB inoculated with B. subtilis was added to each well and serially diluted to determine the minimum inhibitory concentration of each telomycin-lipid mixture. Plates were incubated shaking at 28° C. for 16 h.
as §5

[11] = tested on: B. subtilis; experiment: Bioactivity of telomycin-lipid mixtures on solid agar (diffusion disks); format: cell-based; conditions: excess cardiolipin (2× molar equivalent)
Protocol: To assess the impact of various lipids on telomycin's antibacterial activity on solid agar, 10 μL of 10 mM telomycin was mixed with 10 μL of 20 mM cardiolipin (Sigma Aldrich; C0563; ≥98% pure), phosphatidylglycerol (Sigma Aldrich; 63371; ≥98% pure), phosphatidylcholine (Sigma Aldrich; P3556; ≥99% pure), or phosphatidylethanolamine (Sigma Aldrich; P7943; ≥97% pure). All compounds were dissolved in methanol. Mixtures were incubated for 10 min, then added to diffusion disks, allowed to dry, then placed on a CAMHB agar plate with B. subtilis as an indicator organism. The plate was incubated overnight at 28° C.
as §6

[12] = tested on: Chinese Hamster ovary (CHO) cells; conditions: previous studies; cited from earlier work
[13] = in vivo, cited from earlier work
[14] = tested on: Gram positive organisms; conditions: cited from earlier work

CC(C)CC1NC(=O)C(C(C)c2c[nH]c3ccccc23)NC(=O)/C(=C\c2c[nH]c3ccccc23)NC(=O)C2CCCN2C(=O)CNC(=O)C(C)NC(=O)C(C(C)O)NC(=O)C(NC(=O)C(CO)NC(=O)CC(N)C(=O)O)C(C)OC(=O)C2CCCN2C1=O (stereo not drawn) [telomycin F] (βAsp-STTAGP[X1][X2]LP; ester 2-C; configuration not given here)
activity against resistant strains [1]: comparable with the activity of telomycin A against sensitive strains

N-carboxyfluorescein telomycin [fluorescein-labelled telomycin conjugate]
antimicrobial activity relative to telomycin [2]: slight decrease

telomycin A
telomycin activity after growth in high salinity ([3]; S. aureus grown in CAMHB with 0, 0.5, 1, or 1.5 M NaCl): improved
MIC ([3]; Wild type S. aureus): 8 µg/mL
increase in MIC ([1]; telomycin-resistant bacteria generated with limited passaging, versus sensitive parent): 16 fold
lysis of bacteria ([4]; concentrations above the MIC): rapid lysis
lysis (CFUs before and after treatment) ([4]; wild type S. aureus OD 0.2, 256 μg ml^−1 (32×MIC), 90 min): lyses S. aureus at high concentrations
lysis of bacteria [5]: rapid lysis
lysis of telomycin-resistant bacteria [6]: refractory to lysis
cytotoxicity: not observed at concentrations up to [7]: > 128 µg/mL
hemolysis [8]: not hemolytic; also recorded: does not cause hemolysis
hemolysis ([8]; listed as Telomycin): not hemolytic; also recorded: does not Cause Hemolysis
turbidity / precipitation with cardiolipin [9]: rapidly formed an opaque precipitant in a dose-dependent manner
turbidity / precipitation with cardiolipin ([9]; listed as Telomycin): uniquely and rapidly acquire turbidity
effect of phosphatidylglycerol on antibacterial activity of telomycin ([10]; phosphatidylglycerol in 10× molar excess): some protective effect
effect of cardiolipin on antibacterial activity of telomycin (MIC) ([10]; telomycin 0.1 mM, lipids 1 to 0.05 mM): reduces telomycin's antibacterial activity in a dose-dependent manner
effect of cardiolipin on antibacterial activity of telomycin [11]: completely abolish; also recorded: abolishes
toxicity: not observed at concentrations up to [12]: > 40 µg/mL
efficacy in animal studies [13]: demonstrated efficacy; also recorded: demonstrated value in vivo
toxicity in animals / mammals [13]: without apparent toxicity
toxicity in animals / mammals ([13]; listed as Telomycin): not known to possess significant toxicity

di-5-methyltryptophan telomycin
activity against resistant strains [1]: comparable with the activity of telomycin A against sensitive strains

LL-AO341β
activity relative to telomycin [14]: improved activity
cross-resistance with other antibacterial agents ([14]; previous observations): does not demonstrate cross-resistance
